From US12703693B2, “Crystalline forms of N-{3-[(1S)-1-{[6-(3,4-dimethoxyphenyl)pyrazin-2-yl]amino}ethyl]phenyl}-5-methylpyridine-3-carboxamide and related products and methods” (GB002, INC., priority 2021, dated 2026)
In brackets after ≈: the same amount, converted by molar mass. Marks after values point to notes of the source that are not given here. Values belong to the compound of their own block, whether it stands above or below them.

Key:
[1] = Solubility in ethanol/water mixtures; settings: for solubility / solubility at 4 h / solubility at 24 h: 22 °C, aqueous with cosolvent or surfactant or cyclodextrin, thermodynamic from solid
Procedure: (§1) Phosphate Buffer contained NaH2PO4·H2O (0.345 g), sodium hydroxide aqueous solution (0.2M, 10.001 mL), sodium chloride (0.576 g) and water (qs ad 100.0 mL); • Ethanol/Water (30/70) contained Ethanol (30.0 g) and Water (70.0 g); • Ethanol/Water (40/60) contained Ethanol (40.0 g) and Water (60.0 g); • Ethanol/Water (50/50) contained Ethanol (50.0 g) and Water (50.0 g); and • Ethanol/Water (45/55) contained Ethanol (4.50 g) and Water (5.51 g).

[2] = Solubility in 25 mM phosphate buffer pH 7.4
Procedure: as §1

[3] = Sample stress, 40° C. and 75% relative humidity, XRPD; assay type: physicochemical; settings: open vial, 6 days
Procedure: Two samples, one containing pure crystalline Form A of Compound 1 and a second containing a mixture of crystalline Forms A and B of Compound 1 were placed in an open vial at 40° C. and 75% relative humidity for 6 days and then analyzed by XRPD. The results are presented in Table 11; no changes by XRPD were observed.

[4] = Solubility in ethyl acetate and ethyl acetate+2% water (Crystal16 parallel crystallizer); assay type: physicochemical
Procedure: The solubility of crystalline Forms A and B of Compound 1 in ethyl acetate was determined using a Crystal16® parallel crystallizer. Two heating rates were used, 1° C./min and 0.5° C./min. The suspensions were heated to 78° C. and cooled to 10° C. at 0.2° C./min and maintained for 2 h at 10° C. […] The suspensions were heated to 78° C. at 1° C./min, cooled to 10° C. at 0.2° C./min and maintained for 2 h at 10° C. FIG. 15 compares the resulting solubility curve with the pure ethyl acetate.

[5] = Particle size distribution (PSD) of micronized / spray dried material; assay type: physicochemical; settings: wet milled aqueous suspension of Compound 1 Form A; cycles/pressure: 1A 30/60 bar, 2A 45/50 bar, 3A 30/50 bar
From the text: Crystalline Compound 1 Form A was fed into a grinding chamber tangentially by vacuum created by the venturi system using pressurized nitrogen (venturi pressure, Pvent, above grind pressure, Pgrind). Compressed nitrogen was also used for the jet nozzles in the walls of the chamber. The feed flow rate was set and controlled automatically (by a gravimetric feeder) or manually. Once inside the milling chamber particles were accelerated by a series of perimeter jets, in a spiral movement. The compressed fluid issuing from the nozzles expands from Pgrind and imparts very high rotational speeds in the chamber. The micronizing effect occurs when the slower incoming particles and the faster particles in the spiral path collide. While centrifugal force retains the larger particles at the periphery of the milling chamber, the smaller particles exit with the exhaust gas from the center of the chamber. Five 20 g trials were performed in a 1.5″ jet mill, under varying feed rates (Ffeed,JM,) and pressures; the optimal conditions were used for a sixth larger scale 50 g trial.
Aqueous suspensions of crystalline Compound 1 Form A in water (5% w/w or 10% w/w) were processed via microfluidization with a HPH18 (M-110EH-30 Microfluidics Pilot) wet milling apparatus equipped with an auxiliary processing module (200 μm) and an interaction chamber (Z-shape, 100 μm). The unit was initiated at a given pressure for the first five cycles to perform a pre-milling of the suspension, using only the auxiliary processing module (200 μm). The interaction chamber (100 μm) was then introduced and the suspension processed at a defined pressure. The temperature was controlled, using a reactor jacket, and recorded. To address clogging of the micronization chambers (observed after ~25 cycles), the pressure was increased from 25 to 60 bar.
The material isolated from the first run 1A, was dived into three (1BI, 1BII and 1BIII); runs 2A and 3A were spray dried to produce samples 2B and 3B, respectively. […] Runs 2B and 3B were additionally characterized for specific surface area (SSA). See Table 27 (runs 1BI, 1BII and 1BIII) and Table 28 (runs 2B and 3B) for conditions and product characterization. […]
Two 250 g batches of crystalline Compound 1 Form A were each suspended in water (5 L) and wet polished in a wet milling HPH18 (M-110EH-30 Microfluidics Pilot) apparatus, equipped with an auxiliary processing module (200 μm) and an interaction chamber (Z-shape, 100 μm). The unit was initiated at 50 bar for the first five cycles to perform a pre-milling of the suspension, using only the auxiliary processing module (200 μm). The interaction chamber (100 μm) was then introduced and the suspension processed at 50 bar (increased to 60 or 70 bar if the system clogged). The temperature was maintained at 18-28° C. using a reactor jacket. The Reactor agitation speed was 280 RPM (batch 1) and 390 RPM (batch 2). The first batch was micronized for 25 cycles and particle size distribution analyzed after 5, 15 and 20 cycles; the second batch was micronized for […] and particle size distribution analyzed after 15, 20, 25 and 35 cycles.
Both batches were then spray dried (separately) using a Büchi spray dryer, using an open loop system. The unit was equipped with a two-fluid nozzle: cap and orifice diameters of 1.5 and 0.7 mm, respectively operated with nitrogen. The aspirator, blowing nitrogen, was set at 100% capacity (~40 kg/h). The suspension feed flow was set to 8 ml/min, high and the drying outlet temperature to 75±1° C. […] Total yield (both batches combined) was 267 g (53%).
Two 250 g batches (250 g and 238 g; 488 g total) of crystalline Compound 1 Form A coated with ~2% L-leucine were each suspended in water (5 L) and wet polished in a wet milling HPH18 (M-110EH-30 Microfluidics Pilot) apparatus, under the same process as described in the previous example. The first batch was micronized for 25 cycles and the second for 30 cycles. […]

[6] = EtOH/H2O (w:w) 50:50, top layer after centrifugation, 22° C.

Compound: COc1ccc(-c2cncc(N[C@@H](C)c3cccc(NC(=O)c4cncc(C)c4)c3)n2)cc1OC [Crystalline]
Solubility 4 Hours ([1]; EtOH/H2O (w:w) 40:60, 22° C.): 18900 µg/mL (≈ 40.3 mM)
Solubility 24 Hours ([1]; EtOH/H2O (w:w) 40:60, 22° C.): 18.3 mg/mL (≈ 39 mM)
Solubility Average ([1]; EtOH/H2O (w:w) 40:60, 22° C.): 18600 µg/mL (≈ 39.6 mM)
Solubility 4 Hours ([1]; EtOH/H2O (w:w) 45:55, 22° C.): 53300 µg/mL (≈ 114 mM)
Solubility 24 Hours ([1]; EtOH/H2O (w:w) 45:55, 22° C.): 43.3 mg/mL (≈ 92.2 mM)
Solubility Average ([1]; EtOH/H2O (w:w) 45:55, 22° C.): 48300 µg/mL (≈ 103 mM)
Solubility 4 Hours ([1]; EtOH/H2O (w:w) 50:50, bottom layer after centrifugation, 22° C.): 222000 µg/mL (≈ 473 mM)
Solubility 24 Hours ([1]; EtOH/H2O (w:w) 50:50, bottom layer after centrifugation, 22° C., result outside calibration curve): 362* mg/mL
Solubility 4 Hours [1, 6]: 125000 µg/mL (≈ 266 mM)
Solubility 24 Hours [1, 6]: 177 mg/mL (≈ 377 mM)
solubility ([2]; 25 mM phosphate buffer pH 7.4, equil time 4 hrs): 3.16 µg/mL (≈ 0.00673 mM)
solubility ([2]; 25 mM phosphate buffer pH 7.4, equil time 24 hrs): 3.05 µg/mL (≈ 0.0065 mM)

Compound: COc1ccc(-c2cncc(N[C@@H](C)c3cccc(NC(=O)c4cncc(C)c4)c3)n2)cc1OC [Form A + form B (minor)]
XRPD observation after stress conditions [3]: No change - Form A +

Compound: COc1ccc(-c2cncc(N[C@@H](C)c3cccc(NC(=O)c4cncc(C)c4)c3)n2)cc1OC [Form B, N-{3-[(1S)-1-{[6-(3,4-dimethoxyphenyl)pyrazin-2-yl]amino}ethyl]phenyl}-5-methylpyridine-3-carboxamide]
solubility compared with the other crystalline form ([4]; ethyl acetate and ethyl acetate+2% water (both systems)): slightly less soluble
solubility in ethyl acetate+2% water compared to pure ethyl acetate ([4]; presence of water (2%)): significantly more soluble

Compound: CC(C)C[C@H](N)C(=O)O [L-Leucine]
solubility ([1]; ethanol/water 30:70 (w:w)): 7360 µg/mL (≈ 56.1 mM)
solubility at 4 h ([1]; ethanol/water 30:70 (w:w)): 7470 µg/mL (≈ 56.9 mM)
solubility at 24 h ([1]; ethanol/water 30:70 (w:w)): 7260 µg/mL (≈ 55.3 mM)
solubility ([1]; ethanol/water 40:60 (w:w)): 5880 µg/mL (≈ 44.8 mM)
solubility at 4 h ([1]; ethanol/water 40:60 (w:w)): 6040 µg/mL (≈ 46 mM)
solubility at 24 h ([1]; ethanol/water 40:60 (w:w)): 5710 µg/mL (≈ 43.5 mM)
solubility ([1]; ethanol/water 50:50 (w:w)): 5070 µg/mL (≈ 38.7 mM)
solubility at 4 h ([1]; ethanol/water 50:50 (w:w)): 4720 µg/mL (≈ 36 mM)
solubility at 24 h ([1]; ethanol/water 50:50 (w:w)): 5410 µg/mL (≈ 41.2 mM)

Compound: COc1ccc(-c2cncc(N[C@@H](C)c3cccc(NC(=O)c4cncc(C)c4)c3)n2)cc1OC [Run 1A]
Dv10 [5]: 1.7 μm
Dv50 [5]: 3.2 μm
Dv90 [5]: 6 μm

Results, then the compound that gave them:

Dv10 [5]: 1.3 μm
Dv50 [5]: 2.7 μm
Dv90 [5]: 4.8 μm
Compound: COc1ccc(-c2cncc(N[C@@H](C)c3cccc(NC(=O)c4cncc(C)c4)c3)n2)cc1OC [Run 2A]

Dv10 [5]: 0.1 μm
Dv50 [5]: 1.0 μm
Dv90 [5]: 3.5 μm
Compound: COc1ccc(-c2cncc(N[C@@H](C)c3cccc(NC(=O)c4cncc(C)c4)c3)n2)cc1OC [Run 3A]
